Each compound was assayed against Factor D (Homo sapiens (Human), UniProt P00746) (assay: biochemical). Conditions: read-out: IC50.
Chain of Factor D (P00746 26-253): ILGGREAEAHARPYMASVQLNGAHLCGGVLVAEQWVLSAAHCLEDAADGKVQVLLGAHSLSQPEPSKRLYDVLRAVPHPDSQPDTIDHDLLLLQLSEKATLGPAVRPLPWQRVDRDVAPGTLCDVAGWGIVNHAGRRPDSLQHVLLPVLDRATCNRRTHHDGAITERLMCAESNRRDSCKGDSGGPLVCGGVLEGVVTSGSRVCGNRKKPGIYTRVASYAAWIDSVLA
Assay type: biochemical
For `CC[C@H](C)[C@H](NC(=O)[C@@H]1C[C@@H](F)CN1C(=O)Nc1cn(C(N)=O)c2ccccc12)C(=O)O` [Example 25, (2S,3S)-2-{[(2S,4R)-1-(1-Carbamoyl-1H-indol-3-ylcarbamoyl)-4-fluoro-pyrrolidine-2-carbonyl]-amino}-3-methyl-pentanoic acid], the IC50 was 6.75 µM. Work on `NC(=O)n1cc(NC(=O)N2C[C@@H](N)C[C@H]2C(=O)NCc2cccc(Cl)c2F)c2ccccc21` [Example 26, (2S,4S)-4-Amino-pyrrolidine-1,2-dicarboxylic acid 1-[(1-carbamoyl-1H-indol-3-yl)-amide]2-(3-chloro-2-fluoro-benzylamide)] yielded an IC50 of 0.025 µM. With `NC(=O)n1cc(NC(=O)N2C[C@@H](N)C[C@H]2C(=O)Nc2ccccc2)c2ccccc21` [Example 27, (2S,4S)-4-Amino-pyrrolidine-1,2-dicarboxylic acid 1-[(1-carbamoyl-1H-indol-3-yl)-amide] 2-phenylamide] the IC50 was 8.3 µM. `NC(=O)n1cc(NC(=O)N2C[C@@H](N)C[C@H]2C(=O)NCc2ccccc2)c2ccccc21` [Example 28, (2S,4S)-4-Amino-pyrrolidine-1,2-dicarboxylic acid 2-benzylamide 1-[(1-carbamoyl-1H-indol-3-yl)-amide]] gave an IC50 of 2.52 µM. Compound `NC(=O)n1cc(NC(=O)N2C[C@@H](N)C[C@H]2C(=O)NCc2cccc(Cl)c2)c2ccccc21` [Example 29, (2S,4S)-4-Amino-pyrrolidine-1,2-dicarboxylic acid 1-[(1-carbamoyl-1H-indol-3-yl)-amide] 2-(3-chloro-benzylamide)] has an IC50 of 0.588 µM. Compound `Cc1cccc(CNC(=O)[C@@H]2C[C@H](N)CN2C(=O)Nc2cn(C(N)=O)c3ccccc23)c1` [Example 30, (2S,4S)-4-Amino-pyrrolidine-1,2-dicarboxylic acid 1-[(1-carbamoyl-1H-indol-3-yl)-amide] 2-(3-methyl-benzylamide)] has an IC50 of 2.7 µM. Work on `NC(=O)n1cc(NC(=O)N2C[C@@H](N)C[C@H]2C(=O)NCc2cccc(C(F)(F)F)c2)c2ccccc21` [Example 31, (2S,4S)-4-Amino-pyrrolidine-1,2-dicarboxylic acid 1-[(1-carbamoyl-1H-indol-3-yl)-amide] 2-(3-trifluoromethyl-benzylamide)] yielded an IC50 of 12.2 µM. `NC(=O)n1cc(NC(=O)N2C[C@@H](N)C[C@H]2C(=O)NCc2cccc(F)c2)c2ccccc21` [Example 32, (2S,4S)-4-Amino-pyrrolidine-1,2-dicarboxylic acid 1-[(1-carbamoyl-1H-indol-3-yl)-amide] 2-(3-fluoro-benzylamide)] showed an IC50 of 3.35 µM. Work on `N#Cc1cccc(CNC(=O)[C@@H]2C[C@H](N)CN2C(=O)Nc2cn(C(N)=O)c3ccccc23)c1` [Example 33, (2S,4S)-4-Amino-pyrrolidine-1,2-dicarboxylic acid 1-[(1-carbamoyl-1H-indol-3-yl)-amide] 2-(3-cyano-benzylamide)] yielded an IC50 of 24.1 µM. `NC(=O)n1cc(NC(=O)N2C[C@@H](N)C[C@H]2C(=O)NCc2cccc(Br)c2)c2ccccc21` [Example 34, (2S,4S)-4-Amino-pyrrolidine-1,2-dicarboxylic acid 2-(3-bromo-benzylamide) 1-[(1-carbamoyl-1H-indol-3-yl)-amide]] was tested, and the IC50 was 0.09 µM. With `NC(=O)n1cc(NC(=O)N2C[C@@H](N)C[C@H]2C(=O)NCc2cccc(O)c2)c2ccccc21` [Example 35, (2S,4S)-4-Amino-pyrrolidine-1,2-dicarboxylic acid 1-[(1-carbamoyl-1H-indol-3-yl)-amide] 2-(3-hydroxy-benzylamide)] the IC50 was 2.85 µM. `COc1cccc(CNC(=O)[C@@H]2C[C@H](N)CN2C(=O)Nc2cn(C(N)=O)c3ccccc23)c1` [Example 36, (2S,4S)-4-Amino-pyrrolidine-1,2-dicarboxylic acid 1-[(1-carbamoyl-1H-indol-3-yl)-amide] 2-(3-methoxy-benzylamide)] showed an IC50 of 3.25 µM. Work on `NC(=O)n1cc(NC(=O)N2C[C@@H](N)C[C@H]2C(=O)NCc2cccc(OC(F)(F)F)c2)c2ccccc21` [Example 37, (2S,4S)-4-Amino-pyrrolidine-1,2-dicarboxylic acid 1-[(1-carbamoyl-1H-indol-3-yl)-amide] 2-(3-trifluoromethoxy-benzylamide)] yielded an IC50 of 22 µM. `NC(=O)n1cc(NC(=O)N2C[C@@H](N)C[C@H]2C(=O)NCc2cccc(Oc3ccccc3)c2)c2ccccc21` [Example 38, (2S,4S)-4-Amino-pyrrolidine-1,2-dicarboxylic acid 1-[(1-carbamoyl-1H-indol-3-yl)-amide] 2-(3-phenoxy-benzylamide)] showed an IC50 of 6.3 µM. `NC(=O)n1cc(NC(=O)N2C[C@@H](N)C[C@H]2C(=O)NCc2cccc(-c3ccccc3)c2)c2ccccc21` [Example 39, (2S,4S)-4-Amino-pyrrolidine-1,2-dicarboxylic acid 2-[(biphenyl-3-ylmethyl)-amide] 1-[(1-carbamoyl-1H-indol-3-yl)-amide]] was tested, and the IC50 was 1.05 µM. With `NC(=O)n1cc(NC(=O)N2C[C@@H](N)C[C@H]2C(=O)NCc2cccc(-n3cccc3)c2)c2ccccc21` [Example 40, (2S,4S)-4-Amino-pyrrolidine-1,2-dicarboxylic acid 1-[(1-carbamoyl-1H-indol-3-yl)-amide] 2-(3-pyrrol-1-yl-benzylamide)] the IC50 was 11.2 µM. `NC(=O)n1cc(NC(=O)N2C[C@@H](N)C[C@H]2C(=O)NCc2cccc(-c3ccc(Cl)s3)c2)c2ccccc21` [Example 41, (2S,4S)-4-Amino-pyrrolidine-1,2-dicarboxylic acid 1-[(1-carbamoyl-1H-indol-3-yl)-amide] 2-[3-(5-chloro-thiophen-2-yl)-benzylamide]] was tested, and the IC50 was 3.2 µM. `NC(=O)n1cc(NC(=O)N2C[C@@H](N)C[C@H]2C(=O)NCc2ccc(-c3ccc(Cl)s3)s2)c2ccccc21` [Example 42, (2S,4S)-4-Amino-pyrrolidine-1,2-dicarboxylic acid 1-[(1-carbamoyl-1H-indol-3-yl)-amide] 2-[(5′-chloro-[2,2′]bithiophenyl-5-ylmethyl)-amide]] was tested, and the IC50 was 2.85 µM. For `Cc1ccc(CNC(=O)[C@@H]2C[C@H](N)CN2C(=O)Nc2cn(C(N)=O)c3ccccc23)cc1` [Example 43, (2S,4S)-4-Amino-pyrrolidine-1,2-dicarboxylic acid 1-[(1-carbamoyl-1H-indol-3-yl)-amide] 2-(4-methyl-benzylamide)], the IC50 was 7.75 µM. `NC(=O)n1cc(NC(=O)N2C[C@@H](N)C[C@H]2C(=O)NCc2ccc(C(F)(F)F)cc2)c2ccccc21` [Example 45, (2S,4S)-4-Amino-pyrrolidine-1,2-dicarboxylic acid 1-[(1-carbamoyl-1H-indol-3-yl)-amide] 2-(4-trifluoromethyl-benzylamide)] was tested, and the IC50 was 22.5 µM. `NC(=O)n1cc(NC(=O)N2C[C@@H](N)C[C@H]2C(=O)NCc2ccc(OC(F)(F)F)cc2)c2ccccc21` [Example 46, (2S,4S)-4-Amino-pyrrolidine-1,2-dicarboxylic acid 1-[(1-carbamoyl-1H-indol-3-yl)-amide] 2-(4-trifluoromethoxy-benzylamide)] gave an IC50 of 22.8 µM. `NC(=O)n1cc(NC(=O)N2C[C@@H](N)C[C@H]2C(=O)NCc2ccc(O)cc2)c2ccccc21` [Example 47, (2S,4S)-4-Amino-pyrrolidine-1,2-dicarboxylic acid 1-[(1-carbamoyl-1H-indol-3-yl)-amide] 2-(4-hydroxy-benzylamide)] was tested, and the IC50 was 8.95 µM. Compound `NC(=O)n1cc(NC(=O)N2C[C@@H](N)C[C@H]2C(=O)NCc2ccccc2O)c2ccccc21` [Example 48, (2S,4S)-4-Amino-pyrrolidine-1,2-dicarboxylic acid 1-[(1-carbamoyl-1H-indol-3-yl)-amide] 2-(2-hydroxy-benzylamide)] has an IC50 of 7.5 µM. With `NC(=O)n1cc(NC(=O)N2C[C@@H](N)C[C@H]2C(=O)NCc2ccccc2F)c2ccccc21` [Example 49, (2S,4S)-4-Amino-pyrrolidine-1,2-dicarboxylic acid 1-[(1-carbamoyl-1H-indol-3-yl)-amide] 2-(2-fluoro-benzylamide)] the IC50 was 0.9 µM. With `NC(=O)n1cc(NC(=O)N2C[C@@H](N)C[C@H]2C(=O)NCc2ccccc2Cl)c2ccccc21` [Example 50, (2S,4S)-4-Amino-pyrrolidine-1,2-dicarboxylic acid 1-[(1-carbamoyl-1H-indol-3-yl)-amide] 2-(2-chloro-benzylamide)] the IC50 was 21.6 µM. With `NC(=O)n1cc(NC(=O)N2C[C@@H](N)C[C@H]2C(=O)NCc2ccccc2-c2ccccc2)c2ccccc21` [Example 51, (2S,4S)-4-Amino-pyrrolidine-1,2-dicarboxylic acid 2-[(biphenyl-2-ylmethyl)-amide] 1-[(1-carbamoyl-1H-indol-3-yl)-amide]] the IC50 was 8.5 µM. `NC(=O)n1cc(NC(=O)N2C[C@@H](N)C[C@H]2C(=O)NCc2cccc(F)c2F)c2ccccc21` [Example 52, (2S,4S)-4-Amino-pyrrolidine-1,2-dicarboxylic acid 1-[(1-carbamoyl-1H-indol-3-yl)-amide] 2-(2,3-difluoro-benzylamide)] gave an IC50 of 0.4 µM. In the case of `COc1ccc(Cl)cc1CNC(=O)[C@@H]1C[C@H](N)CN1C(=O)Nc1cn(C(N)=O)c2ccccc12` [Example 53, (2S,4S)-4-Amino-pyrrolidine-1,2-dicarboxylic acid 1-[(1-carbamoyl-1H-indol-3-yl)-amide] 2-(5-chloro-2-methoxy-benzylamide)], the IC50 is reported as 1.75 µM. Compound `COc1ccc(CNC(=O)[C@@H]2C[C@H](N)CN2C(=O)Nc2cn(C(N)=O)c3ccccc23)cc1Cl` [Example 54, (2S,4S)-4-Amino-pyrrolidine-1,2-dicarboxylic acid 1-[(1-carbamoyl-1H-indol-3-yl)-amide] 2-(3-chloro-4-methoxy-benzylamide)] has an IC50 of 1.85 µM. `NC(=O)n1cc(NC(=O)N2C[C@@H](N)C[C@H]2C(=O)NCc2cc(Cl)ccc2F)c2ccccc21` [Example 55, (2S,4S)-4-Amino-pyrrolidine-1,2-dicarboxylic acid 1-[(1-carbamoyl-1H-indol-3-yl)-amide] 2-(5-chloro-2-fluoro-benzylamide)] gave an IC50 of 0.125 µM. `NC(=O)n1cc(NC(=O)N2C[C@@H](N)C[C@H]2C(=O)NCc2ccc(F)c(Cl)c2)c2ccccc21` [Example 56, (2S,4S)-4-Amino-pyrrolidine-1,2-dicarboxylic acid 1-[(1-carbamoyl-1H-indol-3-yl)-amide] 2-(3-chloro-4-fluoro-benzylamide)] was tested, and the IC50 was 1.95 µM.

— patent US9085555B2, “Complement pathway modulators and uses thereof” (priority 2011, dated 2015)
